From US8778617B2, “Method for determining the binding constant of high affinity compounds” (Hoffmann-La Roche Inc., priority 2010, dated 2014)
Blank lines part the entries; values can stand above or below the compound they belong to.

Assays:
[1] = Equilibrium dialysis, binding to beta-hydroxypropyl-cyclodextrine as sink compound; conditions: membrane cut off 1 kDa; for Average Binding [%] to beta-hydroxypropyl-cyclodextrine: beta-hydroxypropyl-cyclodextrine 10% (m/V), test compound 0.02 mM-0.06 mM, DMSO 6% (V/V); for fb(%) excipient binding level: Warfarin 0.01 mM to 0.4 mM, UV
Experimental: A reusable 96-well Micro-Equilibrium dialysis Device 96 chamber was used for the following experiments. The chamber system consists of 10 Teflon™ bars, wherein semipermeable membranes (see 1.2 Membranes) were placed between two Teflon™ bars each to form two compartment of each well. 2) The protein chamber (chamber 2) is filled with buffer and the other excipients to the final volume of approximately 100-150 ul. […] 5) The chamber system was shaken for 1 hour, then incubated over night (approximately 12 hours). Long duration shaking should be avoided due to the risk of higher evaporation caused by the generated heat.

[2] = Equilibrium dialysis, binding to PVP 15; conditions: PVP 15 40 g/l; drugs 0.02-0.6 mM
Experimental: (§1) A reusable 96-well Micro-Equilibrium dialysis Device 96 chamber was used for the following experiments. The chamber system consists of 10 Teflon™ bars, wherein semipermeable membranes (see 1.2 Membranes) were placed between two Teflon™ bars each to form two compartment of each well.
(§2) 2) The protein chamber (chamber 2) is filled with buffer and the other excipients to the final volume of approximately 100-150 ul. It is important that on each side the volume is exactly the same.
(§3) with PVP and PVP in combination with cyclodextrines as sink compound in chamber the volume was 100 μl. (PVP 15 4% (m/V), PVP 25 4% (m/V), PVP 25 4% (m/V)+β-Hydroxypropyl-cyclodextrin 4% (m/V))
(§4) 5) The chamber system was shaken for 1 hour, then incubated over night (approximately 12 hours). Long duration shaking should be avoided due to the risk of higher evaporation caused by the generated heat.
(§5) 6) After reaching the equilibrium, a sample from the sink chamber (reference, binding study II with sink compound and HSA), or from the protein chamber (reference, binding study I with sink compound alone) was transferred to a half-area UV-plate and analyzed spectrometrically (spectra max, 190 Plate Reader; 250-500 nm) or it was analysed by HPLC.
(§6) Concentrations of the drugs: 0.02-0.6 mM
(§7) Amounts of PVP 15 and PVP25: each 40 g/l

[3] = Equilibrium dialysis, binding to PVP 25; conditions: PVP25 40 g/l; drugs 0.02-0.6 mM
Experimental: as §1, §2, §3, §4, §5, §6, §7

[4] = Equilibrium dialysis, binding to combination of PVP25 and beta-hydroxypropyl-cyclodextrin as sink compound; conditions: PVP 25 4% (m/V) + β-Hydroxypropyl-cyclodextrin 4% (m/V); membrane cut off 1 kDa; test compound 0.02 mM to 0.6 mM
Experimental: as §1, §2, §3, §4, §5

[5] = Equilibrium dialysis, excipient binding to gamma-cyclodextrin; conditions: γ-Cyclodextrin 2.5% (m/V); membrane cut off 1 kDa; Warfarin 0.01 mM to 0.4 mM; UV
Experimental: as §1, §2, §4, §5

[6] = target: human serum albumin (HSA) (Homo sapiens, UniProt P02768); assay: Assay with PVP 25 (sink compound) and human serum albumin, new approach; type: in vitro ADME; conditions: pH 7.4, PVP 25 4.0% (m/V) as sink compound, HSA 60 mM, membrane MWCO 3.5 kDa, test compound 0.02 mM to 0.6 mM, HPLC; for fraction bound to HSA: read-out: fu (%) newApproach (binding level to HSA)
Experimental: as §2
End concentration of HSA: 60 mM
as §4, §5
The distribution coefficient and the binding constant can be calculated with binding studies. The binding of drugs to HSA is a reversible process which can be described by the following equilibrium [Du]+[HSA]·[D·HSA]
The binding constant KHSA can be converted to the fraction unbound fu with the following formula derived from the law of mass:
The binding constant to HSA (KHSA) (2) can be calculated from the combination of partition coefficients to PVP (DCPVP) (3) and to HSA in the presence of PVP (DCHSA′) (3). KHSA=DCPVP·DCHSA′ (2)
Vtotal is total volume in the dialysis chamber (200 μl) and VHSA and VPVP are the volumes of HSA and PVP 25, which can be calculated from the density and the weighted sample
Analytics was carried out on an HPLC-system (Agilent 1100). The separations were performed on a RP column (Chromolith flash, RP18e, 4.6×25 mm). Samples were eluted with gradient of water with 0.05% formic acid (A) and Acetonitril (B).

plasma protein [7] = conditions: conventional methods, literature values; cited from earlier work
plasma protein [8] = assay: Protein binding determined with conventional methods (literature values / inhouse); type: in vitro ADME; conditions: read-out: fu (%) Literature (binding level)
From the text: The determined binding levels of the test compound in example 6 (“new approach”) were compared with the values determined with conventional methods (literature values).

human serum albumin (HSA), sequence (P02768 25-609): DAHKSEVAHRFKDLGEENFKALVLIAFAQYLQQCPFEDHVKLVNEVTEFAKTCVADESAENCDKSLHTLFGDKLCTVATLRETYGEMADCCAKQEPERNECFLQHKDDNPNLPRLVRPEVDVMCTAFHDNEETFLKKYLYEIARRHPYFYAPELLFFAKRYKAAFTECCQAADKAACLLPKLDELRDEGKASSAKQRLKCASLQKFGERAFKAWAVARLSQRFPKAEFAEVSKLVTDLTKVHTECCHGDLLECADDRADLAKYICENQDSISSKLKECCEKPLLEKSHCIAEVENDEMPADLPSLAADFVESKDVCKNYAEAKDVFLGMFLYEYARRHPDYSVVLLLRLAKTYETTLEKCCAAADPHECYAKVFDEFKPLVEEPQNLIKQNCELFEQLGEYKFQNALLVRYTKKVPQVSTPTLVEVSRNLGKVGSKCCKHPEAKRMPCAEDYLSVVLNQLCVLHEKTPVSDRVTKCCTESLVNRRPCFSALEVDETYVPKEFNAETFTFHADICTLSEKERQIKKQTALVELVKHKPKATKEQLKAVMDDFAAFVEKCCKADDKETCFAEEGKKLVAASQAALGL

Average Binding [%] to beta-hydroxypropyl-cyclodextrine [1]: 14.2%
SMILES: CO/N=C(\C(=O)N[C@@H]1C(=O)N2C(C(=O)O)=C(CSc3nc(=O)c(=O)[nH]n3C)CS[C@H]12)c1csc(N)n1 [Ceftriaxone]

Average binding [%] to PVP15 [2]: 21.7%
Average binding [%] to PVP25 [3]: 46.4%
Average Binding [%] to beta-hydroxypropyl-cyclodextrine [1]: 23.1%
SMILES: O=C(O)Cc1ccccc1Nc1c(Cl)cccc1Cl [Diclofenac, 2-(2-(2,6-dichlorophenylamino)phenyl)acetic acid]

Average binding [%] to PVP15 [2]: 37.0%
Average binding [%] to PVP25 [3]: 49.4%
SMILES: NS(=O)(=O)c1cc(C(=O)O)c(NCc2ccco2)cc1Cl [Furosemid, 4-chloro-2-(furan-2-ylmethylamino)-5-sulfamoylbenzoic acid]

fb(%) excipient binding level [4]: 27.9%
fb(%) excipient binding level [5]: 6.0%
fb(%) excipient binding level ([1]; β-Hydroxypropyl-cyclodextrin 1% (m/V)): 6.8%
fb(%) excipient binding level ([1]; β-Hydroxypropyl-cyclodextrin 10% (m/V)): 27.6%
SMILES: CC(=O)CC(c1ccccc1)c1c(O)c2ccccc2oc1=O (racemic) [Warfarin, (RS)-4-hydroxy-3-(3-oxo-1-phenylbutyl)-2H-chromen-2-one]

Average Binding [%] to beta-hydroxypropyl-cyclodextrine [1]: 21.6%
SMILES: C=C[C@H]1C[N@@]2CC[C@H]1C[C@H]2[C@H](O)c1ccnc2ccc(OC)cc12 [Quinine]

fraction bound to HSA [6]: 0.994
SMILES: CN(C)CCCN1c2ccccc2Sc2ccc(Cl)cc21 [Chlorpromazine, 3-(2-chloro-10H-phenothiazin-10-yl)-N,N-dimethyl-propan-1-amine]
fu (%) Literature (binding level) (plasma protein [7]): 97.80%

Average Binding [%] to beta-hydroxypropyl-cyclodextrine [1]: 31.3%
SMILES: NC(=O)N1c2ccccc2C=Cc2ccccc21 [Carbamazepin]

fraction bound [6]: 99.6%
SMILES: CN1/C(=C(/O)Nc2ccccn2)C(=O)c2ccccc2S1(=O)=O [Piroxicame, (8E)-8-[hydroxy-(pyridin-2-ylamino)methylidene]-9-methyl-10,10-dioxo-10λ6-thia-9-azabicyclo[4.4.0]deca-1,3,5-trien-7-one]
fu (%) Literature (binding level) (plasma protein [7]): 99.0%

fraction bound to HSA [6]: 1
fraction bound (plasma protein [8]): 0.997
SMILES: COc1ccc(Cl)cc1C(=O)NCCc1ccc(S(=O)(=O)NC(=O)NC2CCCCC2)cc1 [Glibenclamid, 5-chloro-N-(4-[N-(cyclohexylcarbamoyl)sulfamoyl]phenethyl)-2-methoxybenzamide]
